Patent US7989446B2, “4-amino 5-cyanopyrimidine derivatives” (Otsuka Pharmaceutical Co., Ltd., priority 2004, dated 2011)

Key:
[1] = molecular target: T1, adenosine A2a receptor (Human) (Homo sapiens, UniProt P29274); test: c-AMP generating action in cell expressing adenosine A2a receptor; assay type: cell-based; conditions: HEK293 cell expressing human A2a; 100% = c-AMP caused by 1 μM CGS-21680; read-out: A2a Agonistic Action (EC50)
T1 construct: host or cells: HEK293
Description: (1) c-AMP Generating Action in Cell Expressing Adenosine A2a Receptor
The test was carried out as mentioned below with reference to the method disclosed in the reference (Klotz k. N. et al., Naunyn-Schmiedeberg's Arch. Pharmacol., (1998) 357, 1-9; Shryock J. C. et al., Molecular Pharmacology, (1998) 53, 886-893).
As to the cell, HEK293 cell expressing adenosine A2a receptor (Human) (PerkinElmer Life Sciences, Code No. RBHA2AC) was used.
As to the culture medium, Dulbecco's modified Eagles medium (DMEM) including 10% FBS (Fetal bovine serum) and 1 mM of sodium pyruvate was used.
The cell was placed on 96 well plate (1×10^5/well), and cultured overnight. After removing off the supernatant, to each well, 0.1 ml of DMEM (without FBS) containing 20 mM HEPES, 0.1 mM of IBMX (3-isobutyl-1-methylxanthine) and 2 unit/mL adenosine deaminase was added, and they were incubated at 37° C. for 30 minutes. To each well, 0.1 ml of the culture medium including the DMSO solution of the test compound in an appropriate concentration was added and they were incubated for additional 30 minutes. After removing off the supernatant, the cytolytic solution was added to quench the reaction. The amount of c-AMP in each well was measured by using the c-AMP enzyme immunoassay (EIA) system (Amersham Biosciences, Code No. RPN225).
The same assay was repeated using CGS-21680 (2-p-carboxyethyl)phenethylamino-5′-N-ethylcarboxamidoadenosine hydrochloride, (Sigma, code C141) as reference compound. The amount of resultant c-AMP in the medium, caused by 1 μM of reference compound, was defined to be 100%. A concentration of assayed compound in the medium, producing 50% c-AMP amounts, was calculated to be EC50 value.

[2] = molecular target: T2, A1 receptor (Rattus norvegicus, UniProt P25099); test: Adenosine A1 agonistic action ([35S]GTPγS binding, rat cerebral cortex cell membrane); assay type: biochemical, male Wistar rats; conditions: percentage to 100% of CPA 1 μM
T2 construct: cerebral cortex of male Wistar rats (Charles River Japan, Inc) was extirpated; from tissue; host or cells: cerebral cortex of male Wistar rats, cell membrane preparation
T2 sequence (P25099 1-326): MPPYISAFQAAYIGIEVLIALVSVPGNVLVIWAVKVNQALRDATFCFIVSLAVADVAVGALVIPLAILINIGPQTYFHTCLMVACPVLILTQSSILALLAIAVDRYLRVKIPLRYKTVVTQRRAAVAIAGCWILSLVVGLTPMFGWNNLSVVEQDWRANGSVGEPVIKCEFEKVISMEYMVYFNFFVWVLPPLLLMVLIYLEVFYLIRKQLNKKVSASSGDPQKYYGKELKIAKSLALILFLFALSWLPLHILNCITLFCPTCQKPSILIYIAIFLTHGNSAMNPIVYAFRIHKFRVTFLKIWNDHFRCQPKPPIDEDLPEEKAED
Description: (2) Adenosine A1 Agonistic Action
The test was carried out as mentioned below with reference to the method disclosed in the literature (Shryock J. C. et al., Molecular Pharmacology, (1998) 53, 886-893; Ito H. et al., European Journal of Pharmacology, (1999) 365, 309-315). That is, cerebral cortex of male Wistar rats (Charles River Japan, Inc) was extirpated, thereto Tris buffer (50 mM Tris-HCl: pH 7.4) was added, it was homogenized, and then centrifuged (1000×g, 10 min). The supernatant was taken, and centrifuged (20,000×g, 20 min). After removing off the supernatant, the precipitate was suspended in Tris buffer, and recentrifuged (20,000×g, 20 min). After removing off the supernatant, the precipitate was suspended in Tris buffer including 2 units/mL ADA (adenosine deaminase) and reserved at −80° C. until used as a liquid preparation of cell membrane for the following tests.
The above liquid preparation of cell membrane in an amount corresponding to 10 μg of cell membrane was added to Tris-buffer comprising 5 mM of MgCl2, 1 mM of EDTA, 1 mM of dithiothreitol, 100 mM of NaCl, 0.01 mM of GDP (guanosine diphosphate), 5 mg/mL of BSA and 2 units/mL of ADA and the mixture was incubated at 25° C. for 30 minutes. Additionally, [^35S]GTPγS (Guanosine 5′-[γ-thio]triphosphate) (the final concentration: 0.4 nM) and the test compound of the given concentration (which was calculated based on the final concentration of the test compound) were added to the mixture and the resulting mixture was incubated at 25° C. for 45 minutes. The reaction mixture was filtrated through a glass fiber filter (unifilter-96 GF/B, Perkin Elmer Life Sciences) to quench reaction. The filter was washed 5 times with ice-cooled Tris-buffer including 5 mM MgCl2. The radioactivity of the filter was measured with Top count NXT(Perkin Elmer Life Sciences). The nonspecific binding was shown as the binding activity of [^35S]GTPγS in the presence of 0.01 mM GTPγS.
The activity (%, A1 agonistic action) of each test compound was calculated on the basis of the test result ([^35S]GTPγS binding activity) derived with 1 μM of CPA (N^6-Cyclopentyladenosine, Sigma, code C-8031) in control which was counted as 100%.

[3] = tested on: Intraocular Pressure in Rabbit; test: Measuring test for intraocular pressure in rabbit; assay type: in vivo, Female New Zealand white rabbits; conditions: mean±standard error
Description: (3) Measuring Test for Intraocular Pressure in Rabbit
The test compounds were dissolved in 10 mM of phosphate buffer (pH 7.5) (hereinafter, referred to as “vehicle of ophthalmic preparation”), and they were instilled in a given concentration. In addition, the compounds insoluble in that concentration was used as a suspension. Female New Zealand white rabbits (KITAYAMA LABES Co., Ltd.) whose weights were 2.0-4.0 kg were used.
The measurement of the intraocular pressure was carried out using Pneumatonometer (Model 30 Classic, Mentor company) without anesthesia. In addition, before the measurement of the intraocular pressure, the surface anesthesia with 0.4% oxybuprocaine hydrochloride (“Benoxil” 0.4% ophthalmic solution, Santen Pharmaceutical Co., Ltd.) was carried out.
The animals whose intraocular pressure was stable before instillation were selected, and these animals were divided to every 4 animal in each one group, 50 μL of eye drops including each the test compound was administered to one-sided eye and vehicle was administered to contralateral eye as the control eye. The measurement of intraocular pressure was carried out before instillation and after 0.5, 1, 2, 3, 4 and 6 hours from instillation. The effect on the intraocular pressure was shown as the difference from pre-instillation (ΔIOP, mmHg, mean±standard error). The following Tables 14 and 15 show the results of Control Compounds A and B used as 1% suspensions which are the same as in the pharmacological test (1).
The animals were pretreated as mentioned above, and among them animals whose intraocular pressure was stable before instillation were selected, and these animals were divided to every 5 to 8 animal in each one group. Every two group was used for each of the test compounds. The test compound was administered unilaterally to the eye of the test group rabbit and the intraocular pressure was measured. The vehicle was administered unilaterally to the eye of the control group rabbit and the intraocular pressure was measured. As mentioned above, the measurement of intraocular pressure was carried out before instillation and after 0.5, 1, 2, 3, 4 and 6 hours from instillation, and the effect on the intraocular pressure was shown as the difference from pre-instillation (ΔIOP, mmHg, mean±standard error).

[4] = 0.03% ophthalmic solution, rabbit, instillation, 0.5 hr after instillation, difference from pre-instillation
[5] = 0.03% ophthalmic solution, rabbit, instillation, 1 hr after instillation, difference from pre-instillation
[6] = 0.03% ophthalmic solution, rabbit, instillation, 2 hr after instillation, difference from pre-instillation
[7] = 0.03% ophthalmic solution, rabbit, instillation, 3 hr after instillation, difference from pre-instillation
[8] = 0.03% ophthalmic solution, rabbit, instillation, 4 hr after instillation, difference from pre-instillation
[9] = 0.03% ophthalmic solution, rabbit, instillation, 6 hr after instillation, difference from pre-instillation

T1 sequence (P29274 whole entry): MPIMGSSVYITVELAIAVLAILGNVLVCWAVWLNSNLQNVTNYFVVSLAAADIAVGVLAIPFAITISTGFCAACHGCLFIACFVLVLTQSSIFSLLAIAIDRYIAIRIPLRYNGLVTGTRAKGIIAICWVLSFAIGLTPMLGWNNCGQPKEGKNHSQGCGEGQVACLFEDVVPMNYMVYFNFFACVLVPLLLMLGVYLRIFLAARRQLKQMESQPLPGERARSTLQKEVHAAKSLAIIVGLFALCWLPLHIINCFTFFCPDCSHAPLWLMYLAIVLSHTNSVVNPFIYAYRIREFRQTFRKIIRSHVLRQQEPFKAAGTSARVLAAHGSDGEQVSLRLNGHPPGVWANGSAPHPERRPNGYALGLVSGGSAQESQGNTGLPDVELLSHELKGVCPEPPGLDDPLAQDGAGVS

## CC(=O)Nc1ccc(-c2nc(SCc3cccc(CCC(=O)N(C)CCN(C)C)n3)nc(N)c2C#N)cc1.Cl [Example 62, 3-{6-[4-(4-acetylaminophenyl)-6-amino-5-cyanopyrimidin-2-ylsulfanylmethyl]pyridin-2-yl}-N-(2-dimethylaminoethyl)-N-methylpropionamide hydrochloride]
[1]
  EC50: 5.1 nM
[2]; test compound 10 nM
  A1 Agonistic Action (%): 8%
[2]; test compound 100 nM
  A1 Agonistic Action (%): 30%
[2]; test compound 1 μM
  A1 Agonistic Action (%): 39%
[3]; [4]
  ΔIOP (mmHg): −1.2 ± 0.7 mmHg
[3]; [5]
  ΔIOP (mmHg): −4.7 ± 0.5 mmHg
[3]; [6]
  ΔIOP (mmHg): −5.1 ± 0.3 mmHg
[3]; [7]
  ΔIOP (mmHg): −4.9 ± 0.3 mmHg
[3]; [8]
  ΔIOP (mmHg): −3.6 ± 0.3 mmHg
[3]; [9]
  ΔIOP (mmHg): −1.0 ± 0.6 mmHg

## CC(=O)Nc1ccc(-c2nc(SCc3cccc(CCC(=O)N4CCN(CCN(C(C)C)C(C)C)CC4)n3)nc(N)c2C#N)cc1.Cl [Example 76, N-{4-[6-amino-5-cyano-2-(6-{3-[4-(2-diisopropylaminoethyl)piperazin-1-yl]-3-oxopropyl}pyridin-2-ylmethylsulfanyl)pyrimidin-4-yl]phenyl}acetamide hydrochloride]
[1]
  EC50: 7.6 nM
[2]; test compound 10 nM
  A1 Agonistic Action (%): 0%
[2]; test compound 100 nM
  A1 Agonistic Action (%): 14%
[2]; test compound 1 μM
  A1 Agonistic Action (%): 46%
[3]; 0.01% ophthalmic solution, rabbit, instillation, 0.5 hr after instillation, difference from pre-instillation
  ΔIOP (mmHg): −3.7 ± 0.5 mmHg
[3]; 0.01% ophthalmic solution, rabbit, instillation, 1 hr after instillation, difference from pre-instillation
  ΔIOP (mmHg): −6.0 ± 0.8 mmHg
[3]; 0.01% ophthalmic solution, rabbit, instillation, 2 hr after instillation, difference from pre-instillation
  ΔIOP (mmHg): −5.7 ± 0.1 mmHg
[3]; 0.01% ophthalmic solution, rabbit, instillation, 3 hr after instillation, difference from pre-instillation
  ΔIOP (mmHg): −6.1 ± 0.3 mmHg
[3]; 0.01% ophthalmic solution, rabbit, instillation, 4 hr after instillation, difference from pre-instillation
  ΔIOP (mmHg): −5.2 ± 0.4 mmHg
[3]; 0.01% ophthalmic solution, rabbit, instillation, 6 hr after instillation, difference from pre-instillation
  ΔIOP (mmHg): −3.6 ± 0.7 mmHg

## CC(=O)Nc1ccc(-c2c(C#N)c(N)nc(SCc3ccccn3)c2C#N)cc1 [Comparative Compound B, reference compound]
[1]
  EC50: 14.3 nM
[2]; test compound 10 nM
  A1 Agonistic Action (%): 20%
[2]; test compound 100 nM
  A1 Agonistic Action (%): 63%
[2]; test compound 1 μM
  A1 Agonistic Action (%): 77%

## N#Cc1c(N)nc(SCc2csc(-c3ccc(Cl)cc3)n2)c(C#N)c1-c1ccc(OCCO)cc1 [Comparative Compound A, reference compound]
[1]
  EC50: > 1000 nM
[2]; test compound 10 nM
  A1 Agonistic Action (%): 14%
[2]; test compound 100 nM
  A1 Agonistic Action (%): 55%
[2]; test compound 1 μM
  A1 Agonistic Action (%): 79%

## CC(=O)Nc1ccc(-c2nc(SCc3cccc(CCC(=O)N4CCC(N5CCCCC5)CC4)n3)nc(N)c2C#N)cc1.Cl [Example 69, N-(4-{6-amino-2-[6-(3-[1,4′]bipiperidinyl-1′-yl-3-oxopropyl)pyridin-2-ylmethylsulfanyl]-5-cyanopyrimidin-4-yl}phenyl)acetamide hydrochloride]
[1]
  EC50: 7 nM
[3]; 0.01% ophthalmic solution, test group, 0.5 hr
  ΔIOP (mmHg): −1.5 ± 1.0 mmHg
[3]; 0.01% ophthalmic solution, test group, 1 hr
  ΔIOP (mmHg): −4.9 ± 0.7 mmHg
[3]; 0.01% ophthalmic solution, test group, 2 hr
  ΔIOP (mmHg): −3.6 ± 0.4 mmHg
[3]; 0.01% ophthalmic solution, test group, 3 hr
  ΔIOP (mmHg): −3.8 ± 0.7 mmHg
[3]; 0.01% ophthalmic solution, test group, 4 hr
  ΔIOP (mmHg): −2.6 ± 1.0 mmHg
[3]; 0.01% ophthalmic solution, test group, 6 hr
  ΔIOP (mmHg): 0.5 ± 0.9 mmHg

## CC(=O)Nc1ccc(-c2nc(SCc3cccc(CCC(=O)N4CCCN(C)CC4)n3)nc(N)c2C#N)cc1.Cl [Example 80, N-[4-(6-amino-5-cyano-2-{6-[3-(4-methyl-[1,4]diazepan-1-yl)-3-oxopropyl]pyridin-2-ylmethyl-sulfanyl}pyrimidin-4-yl)phenyl]acetamide hydrochloride]
[1]
  EC50: 2.4 nM
[3]; [4]
  ΔIOP (mmHg): −0.9 ± 1.3 mmHg
[3]; [5]
  ΔIOP (mmHg): −5.0 ± 1.0 mmHg
[3]; [6]
  ΔIOP (mmHg): −5.9 ± 0.7 mmHg
[3]; [7]
  ΔIOP (mmHg): −4.9 ± 0.5 mmHg
[3]; [8]
  ΔIOP (mmHg): −5.0 ± 0.8 mmHg
[3]; [9]
  ΔIOP (mmHg): −1.8 ± 0.8 mmHg

## CC(=O)Nc1ccc(-c2nc(SCc3cccc(CN4CCOCC4)n3)nc(N)c2C#N)cc1 [Example 14, N-{4-[6-amino-5-cyano-2-(6-morpholin-4-ylmethylpyridin-2-ylmethylsulfanyl)pyrimidin-4-yl]phenyl}acetamide]
[1]
  EC50: 39.6 nM
[3]; 0.3% suspended ophthalmic preparation, test group, 0.5 hr
  ΔIOP (mmHg): −0.3 ± 1.2 mmHg
[3]; 0.3% suspended ophthalmic preparation, test group, 1 hr
  ΔIOP (mmHg): −3.9 ± 1.3 mmHg
[3]; 0.3% suspended ophthalmic preparation, test group, 2 hr
  ΔIOP (mmHg): −4.4 ± 1.0 mmHg
[3]; 0.3% suspended ophthalmic preparation, test group, 3 hr
  ΔIOP (mmHg): −4.8 ± 1.4 mmHg
[3]; 0.3% suspended ophthalmic preparation, test group, 4 hr
  ΔIOP (mmHg): −4.3 ± 1.0 mmHg
[3]; 0.3% suspended ophthalmic preparation, test group, 6 hr
  ΔIOP (mmHg): −1.0 ± 1.0 mmHg
